Results reported in patent publication US5462933A, “Modified bile acid conjugates, and their use as pharmaceuticals” (Hoechst Aktiengesellschaft, priority 1989, dated 1995).
Structures can show the parent of a compound that is named as a salt. Where two headings read alike, the source gives them in different places.

Biological target: T1, Na+-dependent bile acid transport system (Oryctolagus cuniculus, UniProt Q28727)
T1 construct: brush-border membrane vesicles from the ileum of rabbits; from tissue; host or cells: terminal ileum of male New Zealand rabbits, brush-border membrane vesicles
T1 sequence (Q28727 1-347): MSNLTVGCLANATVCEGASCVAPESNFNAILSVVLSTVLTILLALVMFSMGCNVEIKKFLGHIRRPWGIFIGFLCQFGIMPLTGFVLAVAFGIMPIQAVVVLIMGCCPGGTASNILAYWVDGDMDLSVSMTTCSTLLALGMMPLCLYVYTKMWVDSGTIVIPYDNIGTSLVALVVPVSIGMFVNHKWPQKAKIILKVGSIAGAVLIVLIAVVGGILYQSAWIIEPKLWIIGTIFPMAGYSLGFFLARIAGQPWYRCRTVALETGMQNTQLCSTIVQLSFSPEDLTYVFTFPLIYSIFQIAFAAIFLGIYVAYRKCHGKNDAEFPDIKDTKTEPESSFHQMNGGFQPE
Test: Inhibition of Na+-dependent [3H]taurocholate absorption into brush-border membrane vesicles of the ileum
Type: biochemical, rabbit
Procedure: The preparation of brush-border membrane vesicles from the intestinal cells of the small intestine was carried out using the so-called Mg^2+ precipitation method. Male New Zealand rabbits (2-2.5 kg body weight) were sacrificed by intravenous injection of 0.5 ml of T-61^R. The small intestine was removed and rinsed with ice-cold physiological saline solution. The terminal 3/10 of the small intestine (measured in the oral-rectal direction, i.e. the terminal ileum, which contains the active Na^+ -dependent bile acid transport system) were used for preparation of the brush-border membrane vesicles. The intestines were frozen at -80° C. under nitrogen in plastic bags. The frozen intestines were thawed in a water bath at 30° C. in order to prepare the membrane vesicles. The mucosa was scraped off and suspended in 60 ml of ice-cold 12 mM trys/HCl buffer (pH 7.1)/300 mM mannitol, 5 mM EGTA/10 mg/l of phenylmethylsulfonyl fluoride/1 mg/l of soybean trypsin inhibitor (32 U/mg)/0.5 mg/l of bovine lung trypsin inhibitor (193 U/mg)/5 mg/l of bacitracin. After diluting to 300 ml with ice-cold distilled water, the suspension was homogenized with ice-cooling for 3 minutes at 75% of maximum power using an Ultraturrax (18 rod, IKA Werk Staufen, Federal Republic of Germany). After addition of 3 ml of 1M MgCl2 solution (final concentration 10 mM), the homogenate was allowed to stand at 0° C. for exactly 1 minute. As a result of addition of Mg^2+, the cell membranes aggregate and precipitate with the exception of the brush-border membranes. After centrifugation at 3,000×g (5,000 rpm, SS-34 rotor) for 15 minutes, the precipitate is discarded and the supernatant which contains the brush-border membranes is centrifuged at 26,700×g (15,000 rpm, SS-34 rotor) for 30 minutes. The supernatant was discarded, and the precipitate was rehomogenized in 60 ml of 12 mM tris/HCl buffer (pH 7.1)/60 mM mannitol, 5 mM EGTA using a Potter Elvejhem homogenizer (Braun Melsungen, 900 rpm, 10 strokes). After addition of 0.1 ml of 1M MgCl2 solution and an incubation time of 15 minutes at 0° C., the mixture was again centrifuged at 3,000×g for 15 minutes. The supernatant was then again centrifuged at […] (15,000 rpm, SS-34 rotor) for 30 minutes. The precipitate was taken up in 30 ml of 10 mM tris/hepes buffer (pH 7.4)/300 mM mannitol and homogeneously resuspended by 20 strokes in a Potter Elvejhem homogenizer at 1,000 rpm. After centrifugation at 48,000×g (20,000 rpm, SS-34 rotor) for 30 minutes, the precipitate was taken up in 0.5 to 2 ml of tris/hepes buffer (pH 7.4)/280 mM mannitol (final concentration 20 mg/ml) and resuspended with the aid of a tuberculin syringe using a 27 gauge needle. The vesicles were either used immediately after preparation for transport investigations or stored at -196° C. in liquid nitrogen in 4 mg portions.
The absorption of substrates into brush-border membrane vesicles was determined by means of the so-called membrane filtration technique. 10 μl of the vesicle suspension (100 μg of protein) were pipetted on the wall of a polystyrene incubation tube (11×70 mm) as a drop which contained the incubation medium together with the corresponding ligands (90 μl ). […] The incubation medium was filtered through a polyvinylidene fluoride membrane filter (SYHV LO 4NS, 0.45 μm, 4 mm .phi., Millipore, Eschborn, Federal Republic of Germany). The transport measurement was begun by mixing the vesicles with the incubation medium. […] After the desired incubation time (customarily 1 min), the transport was stopped by addition of 1 ml of ice-cold stop solution (10 mM tris/hepes, (pH 7.4)/150 mM KCl). The resulting mixture was immediately filtered off with suction in a vacuum of 25 to 35 mbar through a membrane filter made of cellulose nitrate (ME 25, 0.45 μm, 25 mm diameter, Schleicher & Schuell, Dassell, Federal Republic of Germany). The filter was subsequently washed with 5 ml of ice-cold Stop solution.

[1] = Na+-dependent transport component, 50 μM taurocholate

| Structure (SMILES) | IC25 [µM] | IC75 [µM] | IC50 (read-out: IC50) [µM] | IC50 [µM] | IC25 [1] [µM] | IC75 [1] [µM] |
| --- | --- | --- | --- | --- | --- | --- |
| COC(=O)CC[C@@H](C)[C@H]1CC[C@H]2[C@@H]3[C@H](O)C[C@@H]4C[C@@H](OCCNC(=O)[C@@H](C)NC(=O)[C@@H](C)N)CC[C@]4(C)[C@H]3C[C@H](O)[C@]12C [Example 120, H-D-Ala-D-Ala-NH--(CH2)2 --GS--OCH3] | 38 | 178 | 87 |  |  |  |
| CC(C)c1nc(-c2ccccc2)cc(-c2ccc(F)cc2)c1/C=C/[C@@H](O)C[C@@H](O)CC(=O)NCCO[C@H]1CC[C@@]2(C)[C@@H](C1)C[C@@H](O)[C@@H]1[C@@H]2C[C@H](O)[C@]2(C)[C@@H]([C@H](C)CCC(=O)NCCS(=O)(=O)O)CC[C@@H]12 [Example 115 (Na salt)] | 12 | 44 | 28 |  |  |  |
| C[C@H](CCC(=O)O)[C@H]1CC[C@H]2[C@@H]3[C@H](O)C[C@@H]4C[C@@H](OCCNC(=O)[C@@H](C)NC(=O)[C@@H](C)NC(=O)OCc5ccccc5)CC[C@]4(C)[C@H]3C[C@H](O)[C@]12C [Example 122, Z-D-Ala-D-Ala-NH--(CH2)2 --GS--OH] | 19 | 237 | 107 |  |  |  |
| CC(C)c1nc(-c2ccccc2)cc(-c2ccc(F)cc2)c1/C=C/[C@@H]1C[C@@H](O)CC(=O)O1 [Example 125, reference compound] | 12 | 104 | 46 |  |  |  |
| C[C@H](CCC(=O)O)[C@H]1CC[C@H]2[C@@H]3[C@H](O)C[C@@H]4C[C@@H](OCCNC(=O)CCCc5ccc(N(CCCl)CCCl)cc5)CC[C@]4(C)[C@H]3C[C@H](O)[C@]12C [Example 66] |  |  |  | 86.5 | 60 | 148 |
| CC(C)c1cc(-c2ccc(F)cc2)c(OC[C@@H](O)C[C@@H](O)CC(=O)NCCO[C@H]2CC[C@@]3(C)[C@@H](C2)C[C@@H](O)[C@@H]2[C@@H]3C[C@H](O)[C@]3(C)[C@@H]([C@H](C)CCC(=O)NCCS(=O)(=O)O)CC[C@@H]23)c(C(C)C)c1 [Example 111] | 10 | 39 | 24 |  |  |  |
| CC(C)c1cc(-c2ccc(F)cc2)c(OC[C@@H](O)C[C@@H](O)CC(=O)NCCO[C@H]2CC[C@@]3(C)[C@@H](C2)C[C@@H](O)[C@@H]2[C@@H]3C[C@H](O)[C@]3(C)[C@@H]([C@H](C)CCC(=O)O)CC[C@@H]23)c(C(C)C)c1 [Example 81] | 15 | 64 | 38 |  |  |  |
| CC(C)c1cc(-c2ccc(F)cc2)c(OC[C@@H](O)C[C@@H](O)CC(=O)NCCO[C@H]2CC[C@@]3(C)[C@@H](C2)C[C@@H](O)[C@@H]2[C@@H]3C[C@H](O)[C@]3(C)[C@@H]([C@H](C)CCC(=O)NCC(=O)O)CC[C@@H]23)c(C(C)C)c1 [Example 101] | 19 | 68 | 40 |  |  |  |
| C[C@H](CCC(=O)NCCS(=O)(=O)O)[C@H]1CC[C@H]2[C@@H]3CC[C@@H]4C[C@H](OS(=O)(=O)O)CC[C@]4(C)[C@H]3CC[C@]12C [Taurolithocholate-3-sulfate, reference compound] |  |  | 245 |  |  |  |
| CC(C)c1nc(-c2ccccc2)cc(-c2ccc(F)cc2)c1/C=C/[C@@H](O)C[C@@H](O)CC(=O)NCCO[C@H]1CC[C@@]2(C)[C@@H](C1)C[C@@H](O)[C@@H]1[C@@H]2C[C@H](O)[C@]2(C)[C@@H]([C@H](C)CCC(=O)O)CC[C@@H]12 [Example 85] | 18 | 64 | 43 |  |  |  |
| CC(C)c1cc(Sc2ccc(F)cc2)cc(-c2ccc(F)cc2)c1OC[C@@H](O)C[C@@H](O)CC(=O)NCCCO[C@H]1CC[C@@]2(C)[C@@H](C1)C[C@@H](O)[C@@H]1[C@@H]2C[C@H](O)[C@]2(C)[C@@H]([C@H](C)CCC(=O)O)CC[C@@H]12 [Example 94] | 4.5 | 24 | 13 |  |  |  |
| CC(C)c1nc(-c2ccccc2)cc(-c2ccc(F)cc2)c1/C=C/[C@@H](O)C[C@@H](O)CC(=O)NCCO[C@H]1CC[C@@]2(C)[C@@H](C1)C[C@@H](O)[C@@H]1[C@@H]2C[C@H](O)[C@]2(C)[C@@H]([C@H](C)CCC(=O)NCC(=O)O)CC[C@@H]12 [Example 105] | 11 | 45 | 22.5 |  |  |  |
| C[C@H](CCC(=O)O)[C@H]1CC[C@H]2[C@@H]3[C@H](O)C[C@@H]4C[C@@H](OCCNC(=O)[C@@H](C)NC(=O)[C@@H](C)N)CC[C@]4(C)[C@H]3C[C@H](O)[C@]12C [Example 121, H-D-Ala-D-Ala-NH--(CH2)2 --GS--OH] | 30 | 172 | 84 |  |  |  |
| COC(=O)CC[C@@H](C)[C@H]1CC[C@H]2[C@@H]3[C@H](O)C[C@@H]4C[C@@H](OCCNC(=O)[C@@H](C)NC(=O)[C@@H](C)NC(=O)OCc5ccccc5)CC[C@]4(C)[C@H]3C[C@H](O)[C@]12C [Example 119, Z-D-Ala-D-Ala-NH--(CH2)2 --GS--OCH3] | 48 |  | 134 |  |  |  |
| CC(C)c1nc(-c2ccccc2)cc(-c2ccc(F)cc2)c1/C=C/[C@@H](O)C[C@@H](O)CC(=O)NCCCO[C@@H]1CC[C@@]2(C)[C@@H](C1)C[C@@H](O)[C@@H]1[C@@H]2C[C@H](O)[C@]2(C)[C@@H]([C@H](C)CCC(=O)O)CC[C@@H]12 [Example 87] | 16 | 70 | 56 |  |  |  |
| CC(C)c1cc(Sc2ccc(F)cc2)cc(-c2ccc(F)cc2)c1OC[C@@H](O)C[C@@H](O)CC(=O)NCCO[C@H]1CC[C@@]2(C)[C@@H](C1)C[C@@H](O)[C@@H]1[C@@H]2C[C@H](O)[C@]2(C)[C@@H]([C@H](C)CCC(=O)O)CC[C@@H]12 [Example 93] | 3.2 | 23 | 8 |  |  |  |
| C[C@H](CCC(=O)NCCS(=O)(=O)O)[C@H]1CC[C@H]2[C@@H]3CC[C@@H]4C[C@H](O)CC[C@]4(C)[C@H]3CC[C@]12C [Taurolithocholate, reference compound] |  |  | 12 |  |  |  |
| C[C@H](CCC(=O)NCCS(=O)(=O)O)[C@H]1CC[C@H]2[C@@H]3[C@H](O)C[C@@H]4C[C@H](O)CC[C@]4(C)[C@H]3CC[C@]12C [Taurochenodeoxycholate, reference compound] |  |  | 23 |  |  |  |
| CC(C)c1cc(-c2ccc(F)cc2)c(OC[C@@H](O)C[C@@H](O)CC(=O)NCCCO[C@H]2CC[C@@]3(C)[C@@H](C2)C[C@@H](O)[C@@H]2[C@@H]3C[C@H](O)[C@]3(C)[C@@H]([C@H](C)CCC(=O)O)CC[C@@H]23)c(C(C)C)c1 [Example 82 (Na salt)] | 17 | 80 | 48 |  |  |  |
| C[C@H](CCC(=O)NCC(=O)O)[C@H]1CC[C@H]2[C@@H]3[C@H](O)C[C@@H]4C[C@@H](OCCNC(=O)CCCc5ccc(N(CCCl)CCCl)cc5)CC[C@]4(C)[C@H]3C[C@H](O)[C@]12C [Example 68] |  |  |  | 89 | 60 | 250 |
| Cc1cc(C(=C(/C=C/[C@@H](O)C[C@@H](O)CC(=O)NCCO[C@H]2CC[C@@]3(C)[C@@H](C2)C[C@@H](O)[C@@H]2[C@@H]3C[C@H](O)[C@]3(C)[C@@H]([C@H](C)CCC(=O)O)CC[C@@H]23)C(C)C)c2ccc(F)c(C)c2)ccc1F [Example 90] | 3.8 | 27 | 12 |  |  |  |
